Experimental data taken from patent publication US9957230B2, “Synergistic compositions” (Cadila Healthcare Limited, priority 2013, dated 2018).

Tested on: Swiss albino mice
Experiment: Triglyceride lowering effects of various salts in Swiss albino mice
Assay type: in vivo
Conditions: dose equivalent to 1 mg/kg free acid; for Serum triglycerides (mg/dl) Day 0: Day 0 (pretreatment); for Serum triglycerides (mg/dl) Day 0 / Serum triglycerides (mg/dl) Day 6: male Swiss albino mice; for Serum triglycerides (mg/dl) Day 6: Day 6, one hr after dose; for % Change Vs control: serum triglycerides vs vehicle control after 6 days; for % Change Day 6 vs Day 0: serum triglycerides
Description: Comparative Efficacy Study of (Triglyceride Lowering Effects) of Various Salts of Compound (Ia) in Swiss Albino Mice.
The in-vivo efficacy of compound (I) was evaluated in Swiss albino mice. Anti-dyslipidemic drugs have been reported to lower circulating levels of triglyceride in Swiss albino mice through their effect on genes involved in the peroxisomal fatty acid beta oxidation via PPAR alpha agonism. Therefore, this species is preferred for evaluation of their efficacy in lowering circulating triglyceride (TG) levels.
In this experiment, six to eight week old male Swiss albino mice were issued and kept for acclimatization. Near the end of the acclimatization period, animals judged to be suitable for testing were bled under light ether anesthesia and serum samples were analyzed for Serum triglyceride levels.
Test compound was formulated at specified doses in vehicle (10% Polyethylene glycol (PEG) 400+90% of 0.5% Sodium Carboxy methyl cellulose). The animals were dosed orally, once daily in the morning during six days, starting from next day of grouping with vehicle or test compound. The animals were weighed prior to dosing, and based on these weights; the volume of administration was calculated. The volume of formulation administered to each mouse was 10 ml/kg body weight.
On day 6 one hr after the dose administration, blood (0.25 ml) was collected from retro-orbital sinus of the anaesthetized animals. Serum was separated by centrifugation. Serum was analyzed for triglyceride levels. Analysis for serum triglyceride levels was performed using a Spectrophotometer and commercially available kit. Calculations for determination of % change and % reduction in serum TG levels were performed using MS Excels sheet.

[1] = Table 5, oral once daily 6 days
[2] = Table 3, oral once daily 6 days

Row | Compound | Serum triglycerides (mg/dl) Day 0 [1] [mg/dL] | Serum triglycerides (mg/dl) Day 6 [1] [mg/dL] | % Change Vs control (Table 5, oral) [%] | % Change Day 6 vs Day 0 [1] [%] | Serum triglycerides (mg/dl) Day 0 (Table 7, po once daily 6 days) [mg/dL] | Serum triglycerides (mg/dl) Day 6 (Table 7, po once daily 6 days) [mg/dL] | % Change Vs control (Table 7, po) [%] | % Change Day 6 vs Day 0 (Table 7, po once daily 6 days) [%] | also measured
1 | CCO[C@@H](Cc1ccc(OCCn2c(C)ccc2-c2ccc(SC)cc2)cc1)C(=O)O.c1ccc(CCNCc2ccccc2)cc1 [Benethamine salt of Formula (I), (S) 2-Ethoxy-3-(4-{2-[2-methyl-5-(4-methylthiophenyl)-pyrrol-1-yl]-ethoxy}-phenyl)-propionic acid Benethamine salt] | 91.6 ± 6.4 | 56.0 ± 4.9 | −41.6 ± 5.4 | −38.3 ± 5.7 |  |  |  |  | 
2 | CCO[C@@H](Cc1ccc(OCCn2c(C)ccc2-c2ccc(SC)cc2)cc1)C(=O)[O-].C[N+](C)(C)CCO [Choline salt of Formula (I), Choline Salt (i.e 2-Hydroxy-N,N,N-trimethylethanaminium hydroxide or choline hydroxide) of (S) 2-Ethoxy-3-(4-{2-[2-methyl-5-(4-methylthiophenyl)-pyrrol-1-ylethoxyphenylpropionic acid] |  |  |  |  | 110.9 ± 7.7 | 47.6 ± 3.4 | −51.0 ± 4.8 | −56.0 ± 4.3 | 
3 | CCO[C@@H](Cc1ccc(OCCn2c(C)ccc2-c2ccc(SC)cc2)cc1)C(=O)O.OCCN1CCCC1 [Epolamine salt of Formula (I)] |  |  |  |  | 110.5 ± 7.5 | 39.6 ± 3.8 | −60.1 ± 2.6 | −64.2 ± 2.3 | 
4 | CCO[C@@H](Cc1ccc(OCCn2c(C)ccc2-c2ccc(SC)cc2)cc1)C(=O)O.NCCO [Ethanolamine salt of Formula (I)] |  |  |  |  | 110.5 ± 7.5 | 42.5 ± 3.6 | −56.9 ± 3.6 | −61.3 ± 3.2 | 
5 | CCO[C@@H](Cc1ccc(OCCn2c(C)ccc2-c2ccc(SC)cc2)cc1)C(=O)O.c1c[nH]cn1 [Imidazole salt of Formula (I), (S) 2-Ethoxy-3-(4-{2-[2-methyl-5-(4-methylthiophenyl)-pyrrol-1-yl]-ethoxy}-phenyl)-propionic acid imidazole salt] |  |  |  |  | 110.5 ± 7.2 | 43.5 ± 2.5 | −55.3 ± 3.6 | −59.8 ± 3.2 | 
6 | CCO[C@@H](Cc1ccc(OCCn2c(C)ccc2-c2ccc(SC)cc2)cc1)C(=O)[O-].[K+] [Potassium Salt of formula (I), (S) 2-Ethoxy-3-(4-{2-[2-methyl-5-(4-methylthiophenyl)-pyrrol-1-yl]-ethoxy}-phenyl)-propionic acid potassium salt] |  |  |  |  |  |  |  |  | Serum triglycerides (mg/dl) Day 0 [2]: 119.0 ± 9.2 mg/dL; Serum triglycerides (mg/dl) Day 6 [2]: 44.8 ± 4.6 mg/dL; % Change Vs control (Table 3, oral): −60.2 ± 6.0%; % Change Day 6 vs Day 0 [2]: −60.7 ± 6.0%
7 | CCO[C@@H](Cc1ccc(OCCn2c(C)ccc2-c2ccc(SC)cc2)cc1)C(=O)[O-].[Na+] [Sodium Salt of Formula (I), (S) 2-Ethoxy-3-(4-{2-[2-methyl-5-(4-methylthiophenyl)-pyrrol-1-yl]-ethoxy}-phenyl)-propionic acid sodium salt] |  |  |  |  |  |  |  |  | Serum triglycerides (mg/dl) Day 0 [2]: 119.4 ± 11.9 mg/dL; Serum triglycerides (mg/dl) Day 6 [2]: 41.6 ± 1.8 mg/dL; % Change Vs control (Table 3, oral): −63.1 ± 3.6%; % Change Day 6 vs Day 0 [2]: −63.5 ± 3.6%
8 | CCO[C@@H](Cc1ccc(OCCn2c(C)ccc2-c2ccc(SC)cc2)cc1)C(=O)O.OCCN(CCO)CCO [Triethanolamine salt of Formula (I)] |  |  |  |  | 110.3 ± 7.5 | 33.0 ± 2.6 | −65.3 ± 4.4 | −68.9 ± 3.9 | 
9 | (S) 2-Ethoxy-3-(4-{2-[2-methyl-5-(4-methylthiophenyl)-pyrrol-1-yl]-ethoxy}-phenyl)-propionic acid Calcium Salt [Calcium Salt of Formula (I)] |  |  |  |  |  |  |  |  | Serum triglycerides (mg/dl) Day 0 [2]: 119.2 ± 11.1 mg/dL; Serum triglycerides (mg/dl) Day 6 [2]: 38.8 ± 3.2 mg/dL; % Change Vs control (Table 3, oral): −66.4 ± 2.5%; % Change Day 6 vs Day 0 [2]: −66.8 ± 2.5%
10 | (S) 2-Ethoxy-3-(4-{2-[2-methyl-5-(4-methylthiophenyl)-pyrrol-1-yl]-ethoxy}-phenyl)-propionic acid Dibenzylamine salt [Dibenzylamine salt of Formula (I)] | 91.0 ± 6.7 | 42.1 ± 2.9 | −54.4 ± 5.8 | −51.8 ± 6.1 |  |  |  |  | 
11 | (S) 2-Ethoxy-3-(4-{2-[2-methyl-5-(4-methylthiophenyl)-pyrrol-1-yl]-ethoxy}-phenyl)-propionic acid L-Lysine salt [L-lysine salt of Formula (I)] | 91.2 ± 6.8 | 48.7 ± 3.3 | −48.7 ± 3.6 | −45.8 ± 3.8 |  |  |  |  | 
12 | (S) 2-Ethoxy-3-(4-{2-[2-methyl-5-(4-methylthiophenyl)-pyrrol-1-yl]-ethoxy}-phenyl)-propionic acid L-arginine salt [L-arginine salt of Formula (I)] | 91.6 ± 7.9 | 37.2 ± 2.1 | −60.2 ± 3.9 | −58.0 ± 4.2 |  |  |  |  | 
13 | (S) 2-Ethoxy-3-(4-{2-[2-methyl-5-(4-methylthiophenyl)-pyrrol-1-yl]-ethoxy}-phenyl)-propionic acid Meglumine salt [Maglumine salt of Formula (I)] |  |  |  |  | 110.6 ± 9.1 | 32.4 ± 1.5 | −66.5 ± 2.5 | −70.0 ± 2.2 | 
14 | (S) 2-Ethoxy-3-(4-{2-[2-methyl-5-(4-methylthiophenyl)-pyrrol-1-yl]-ethoxy}-phenyl)-propionic acid Tromethamine salt [Tromethamine salt of Formula (I)] | 91.2 ± 7.8 | 47.9 ± 4.9 | −46.9 ± 8.5 | −43.9 ± 9.0 |  |  |  |  | 
15 | (S) 2-Ethoxy-3-(4-{2-[2-methyl-5-(4-methylthiophenyl)-pyrrol-1-yl]-ethoxy}-phenyl)-propionic acid Zinc Salt [Zinc Salt of Formula (I)] |  |  |  |  |  |  |  |  | Serum triglycerides (mg/dl) Day 0 [2]: 119.1 ± 7.6 mg/dL; Serum triglycerides (mg/dl) Day 6 [2]: 68.6 ± 7.5 mg/dL; % Change Vs control (Table 3, oral): −42.0 ± 4.2%; % Change Day 6 vs Day 0 [2]: −42.7 ± 4.2%
16 | (S) 2-Ethoxy-3-(4-{2-[2-methyl-5-(4-methylthiophenyl)-pyrrol-1-yl]-ethoxy}-phenyl)-propionic acid benzylamine salt [Benzylamine salt of Formula (I)] | 91.1 ± 10.8 | 36.5 ± 4.0 | −60.2 ± 5.8 | −57.9 ± 6.2 |  |  |  |  | 
17 | (S) 2-Ethoxy-3-(4-{2-[2-methyl-5-(4-methylthiophenyl)-pyrrol-1-yl]-ethoxy}-phenyl)-propionic acid piperazine salt [Piperazine salt of Formula (I)] | 91.0 ± 6.5 | 44.1 ± 1.9 | −52.8 ± 3.7 | −50.2 ± 4.0 |  |  |  |  | 
